Data taken from ChEMBL document CHEMBL5653615 (J Biol Chem, 2013).

Legend:
[1] = target: T1, Serine/threonine-protein kinase BRSK1 (Homo sapiens) (UniProt Q8TDC3); experiment: Inhibition of human BRSK1 at 1.82 nM by HotSpot assay relative to control
T1 sequence (whole entry): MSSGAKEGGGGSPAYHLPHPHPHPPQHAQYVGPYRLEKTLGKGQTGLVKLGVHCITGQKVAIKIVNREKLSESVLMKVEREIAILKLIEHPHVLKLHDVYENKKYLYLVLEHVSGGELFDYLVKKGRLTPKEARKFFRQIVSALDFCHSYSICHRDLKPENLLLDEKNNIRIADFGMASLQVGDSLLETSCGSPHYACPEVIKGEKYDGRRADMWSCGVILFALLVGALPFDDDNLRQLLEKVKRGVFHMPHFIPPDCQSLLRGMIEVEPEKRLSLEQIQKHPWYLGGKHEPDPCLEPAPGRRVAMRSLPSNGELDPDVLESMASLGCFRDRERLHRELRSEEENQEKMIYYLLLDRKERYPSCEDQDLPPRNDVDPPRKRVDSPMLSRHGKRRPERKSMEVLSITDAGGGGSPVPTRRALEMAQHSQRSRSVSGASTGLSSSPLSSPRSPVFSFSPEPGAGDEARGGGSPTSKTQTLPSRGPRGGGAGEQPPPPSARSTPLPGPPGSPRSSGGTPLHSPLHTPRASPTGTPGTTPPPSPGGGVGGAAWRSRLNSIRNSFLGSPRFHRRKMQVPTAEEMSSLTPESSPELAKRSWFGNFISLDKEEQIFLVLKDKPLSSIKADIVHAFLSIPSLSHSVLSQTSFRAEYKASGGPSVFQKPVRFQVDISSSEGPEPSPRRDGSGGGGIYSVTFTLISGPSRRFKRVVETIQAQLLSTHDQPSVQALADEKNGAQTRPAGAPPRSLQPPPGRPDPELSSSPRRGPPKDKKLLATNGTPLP

[2] = target: Tyrosine-protein kinase Fes/Fps (Homo sapiens) (UniProt P07332); experiment: Inhibition of human FES at 1.82 nM by HotSpot assay relative to control
Sequence of Tyrosine-protein kinase Fes/Fps (Homo sapiens) (P07332 whole entry): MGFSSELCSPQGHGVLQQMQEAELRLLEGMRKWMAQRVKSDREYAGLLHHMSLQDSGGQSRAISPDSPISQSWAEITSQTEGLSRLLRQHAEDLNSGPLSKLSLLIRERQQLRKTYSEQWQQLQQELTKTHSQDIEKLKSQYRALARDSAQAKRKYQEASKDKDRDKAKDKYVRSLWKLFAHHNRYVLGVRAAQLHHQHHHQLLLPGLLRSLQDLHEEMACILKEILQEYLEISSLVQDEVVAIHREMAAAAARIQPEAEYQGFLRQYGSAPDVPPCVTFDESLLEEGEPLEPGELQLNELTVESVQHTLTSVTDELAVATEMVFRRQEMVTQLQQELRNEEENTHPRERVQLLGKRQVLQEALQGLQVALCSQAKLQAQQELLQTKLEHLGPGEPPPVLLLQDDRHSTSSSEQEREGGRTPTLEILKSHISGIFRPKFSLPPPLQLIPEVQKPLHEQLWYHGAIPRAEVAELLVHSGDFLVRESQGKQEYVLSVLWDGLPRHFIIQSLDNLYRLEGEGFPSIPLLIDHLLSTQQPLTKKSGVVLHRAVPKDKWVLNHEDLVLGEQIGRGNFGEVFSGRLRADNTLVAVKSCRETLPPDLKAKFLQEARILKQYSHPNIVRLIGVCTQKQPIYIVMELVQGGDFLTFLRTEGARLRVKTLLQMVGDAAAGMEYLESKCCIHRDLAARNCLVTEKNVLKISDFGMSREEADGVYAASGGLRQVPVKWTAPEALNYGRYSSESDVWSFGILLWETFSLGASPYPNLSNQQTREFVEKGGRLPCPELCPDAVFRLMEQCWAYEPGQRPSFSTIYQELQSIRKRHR

[3] = target: T2, Serine/threonine-protein kinase Sgk3 (Homo sapiens) (UniProt Q96BR1); experiment: Inhibition of human SGKL at 1.82 nM by HotSpot assay relative to control
T2 sequence (whole entry): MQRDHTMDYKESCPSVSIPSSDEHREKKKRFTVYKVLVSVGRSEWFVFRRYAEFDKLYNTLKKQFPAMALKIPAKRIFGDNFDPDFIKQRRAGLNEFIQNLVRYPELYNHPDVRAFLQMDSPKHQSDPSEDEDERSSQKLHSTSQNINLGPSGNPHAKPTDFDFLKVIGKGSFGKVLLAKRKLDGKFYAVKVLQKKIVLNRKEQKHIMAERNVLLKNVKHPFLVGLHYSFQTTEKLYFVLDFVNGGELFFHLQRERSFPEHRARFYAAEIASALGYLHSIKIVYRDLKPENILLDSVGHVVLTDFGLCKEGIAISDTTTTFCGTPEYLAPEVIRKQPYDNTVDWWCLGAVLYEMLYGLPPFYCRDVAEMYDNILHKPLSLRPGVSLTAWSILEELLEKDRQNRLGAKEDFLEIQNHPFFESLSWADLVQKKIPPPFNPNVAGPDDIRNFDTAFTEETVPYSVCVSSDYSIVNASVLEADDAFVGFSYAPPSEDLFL

[4] = target: Serine/threonine-protein kinase Nek6 (Homo sapiens) (UniProt Q9HC98); experiment: Inhibition of human NEK6 at 1.82 nM by HotSpot assay relative to control
Sequence of Serine/threonine-protein kinase Nek6 (Homo sapiens) (Q9HC98 whole entry): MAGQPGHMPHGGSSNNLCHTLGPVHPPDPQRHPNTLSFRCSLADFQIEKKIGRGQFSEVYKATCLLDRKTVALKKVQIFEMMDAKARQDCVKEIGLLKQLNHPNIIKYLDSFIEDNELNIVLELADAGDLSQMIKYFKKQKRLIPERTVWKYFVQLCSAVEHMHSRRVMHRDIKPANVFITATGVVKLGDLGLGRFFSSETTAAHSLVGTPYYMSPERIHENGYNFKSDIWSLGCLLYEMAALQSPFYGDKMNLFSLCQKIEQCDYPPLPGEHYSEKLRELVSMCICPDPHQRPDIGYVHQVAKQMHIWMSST

[5] = target: Ribosomal protein S6 kinase beta-2 (Homo sapiens) (UniProt Q9UBS0); experiment: Inhibition of human RPS6KB2 at 1.82 nM by HotSpot assay relative to control
Sequence of Ribosomal protein S6 kinase beta-2 (Homo sapiens) (Q9UBS0 whole entry): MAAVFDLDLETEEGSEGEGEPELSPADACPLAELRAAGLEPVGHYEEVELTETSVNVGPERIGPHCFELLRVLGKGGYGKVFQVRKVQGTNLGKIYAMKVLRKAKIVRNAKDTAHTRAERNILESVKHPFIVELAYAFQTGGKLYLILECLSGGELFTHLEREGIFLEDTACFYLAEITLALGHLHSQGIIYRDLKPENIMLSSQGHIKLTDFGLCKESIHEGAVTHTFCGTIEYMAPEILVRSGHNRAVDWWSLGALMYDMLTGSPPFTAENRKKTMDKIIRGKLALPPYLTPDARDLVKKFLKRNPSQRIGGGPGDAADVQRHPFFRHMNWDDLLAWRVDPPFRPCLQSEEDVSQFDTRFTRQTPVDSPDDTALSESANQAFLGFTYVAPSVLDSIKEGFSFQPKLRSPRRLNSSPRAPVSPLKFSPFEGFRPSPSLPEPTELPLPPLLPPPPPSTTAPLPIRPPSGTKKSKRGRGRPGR

[6] = target: Serine/threonine-protein kinase 24 (Homo sapiens) (UniProt Q9Y6E0); experiment: Inhibition of human STK24 at 18.6 nM by HotSpot assay relative to control
Sequence of Serine/threonine-protein kinase 24 (Homo sapiens) (Q9Y6E0 whole entry, looked up): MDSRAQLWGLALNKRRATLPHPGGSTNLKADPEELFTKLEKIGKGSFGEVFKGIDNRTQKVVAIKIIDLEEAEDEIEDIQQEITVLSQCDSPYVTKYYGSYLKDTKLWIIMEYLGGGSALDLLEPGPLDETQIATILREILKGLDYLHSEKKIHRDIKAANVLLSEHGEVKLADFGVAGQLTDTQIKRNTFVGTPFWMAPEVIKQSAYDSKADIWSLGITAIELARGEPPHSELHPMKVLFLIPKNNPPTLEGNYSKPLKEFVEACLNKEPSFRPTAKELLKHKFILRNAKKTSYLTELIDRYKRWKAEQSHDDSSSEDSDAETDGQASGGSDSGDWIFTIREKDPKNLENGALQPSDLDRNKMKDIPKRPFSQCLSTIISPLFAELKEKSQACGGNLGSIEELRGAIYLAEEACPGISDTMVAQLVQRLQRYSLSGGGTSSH

[7] = target: T3, Cytoplasmic tyrosine-protein kinase BMX (Homo sapiens) (UniProt P51813); experiment: Inhibition of human BMX at 18.6 nM by HotSpot assay relative to control
T3 sequence (whole entry): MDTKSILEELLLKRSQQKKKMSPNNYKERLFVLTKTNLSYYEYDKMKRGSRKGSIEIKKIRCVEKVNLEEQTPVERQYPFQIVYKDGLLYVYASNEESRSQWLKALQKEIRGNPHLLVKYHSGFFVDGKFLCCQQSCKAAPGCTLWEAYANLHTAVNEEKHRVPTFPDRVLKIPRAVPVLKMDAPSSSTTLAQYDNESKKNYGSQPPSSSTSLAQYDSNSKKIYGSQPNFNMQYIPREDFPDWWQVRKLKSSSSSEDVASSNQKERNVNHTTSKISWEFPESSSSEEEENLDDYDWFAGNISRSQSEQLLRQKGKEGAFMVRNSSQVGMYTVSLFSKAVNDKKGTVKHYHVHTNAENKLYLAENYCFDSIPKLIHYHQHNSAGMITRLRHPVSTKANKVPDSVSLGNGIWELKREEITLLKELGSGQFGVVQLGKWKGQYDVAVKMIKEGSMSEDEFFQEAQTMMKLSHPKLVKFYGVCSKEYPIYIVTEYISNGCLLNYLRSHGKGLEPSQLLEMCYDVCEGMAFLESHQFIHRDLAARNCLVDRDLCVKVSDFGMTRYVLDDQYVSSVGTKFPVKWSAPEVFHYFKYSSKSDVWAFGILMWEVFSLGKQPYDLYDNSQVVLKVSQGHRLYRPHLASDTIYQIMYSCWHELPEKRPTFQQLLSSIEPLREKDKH

[8] = target: CDK3/Cyclin E (Homo sapiens) (UniProt P24864+Q00526); experiment: Inhibition of human CDK3/cyclin E at 18.6 nM by HotSpot assay relative to control; format: protein-complex assay
Sequence of CDK3/Cyclin E (Homo sapiens) (P24864 whole entry, looked up): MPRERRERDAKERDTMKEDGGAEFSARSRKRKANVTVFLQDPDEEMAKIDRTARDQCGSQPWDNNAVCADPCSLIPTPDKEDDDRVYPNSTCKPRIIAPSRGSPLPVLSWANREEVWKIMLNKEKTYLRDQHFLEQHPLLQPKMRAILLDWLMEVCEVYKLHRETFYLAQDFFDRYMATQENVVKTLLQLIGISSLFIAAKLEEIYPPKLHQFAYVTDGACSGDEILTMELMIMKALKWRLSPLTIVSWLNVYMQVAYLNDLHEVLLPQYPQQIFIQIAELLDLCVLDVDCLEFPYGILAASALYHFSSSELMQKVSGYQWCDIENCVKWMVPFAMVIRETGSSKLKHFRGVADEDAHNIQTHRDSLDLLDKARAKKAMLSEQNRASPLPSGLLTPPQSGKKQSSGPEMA
Sequence of CDK3/Cyclin E (Homo sapiens) (Q00526 whole entry, looked up): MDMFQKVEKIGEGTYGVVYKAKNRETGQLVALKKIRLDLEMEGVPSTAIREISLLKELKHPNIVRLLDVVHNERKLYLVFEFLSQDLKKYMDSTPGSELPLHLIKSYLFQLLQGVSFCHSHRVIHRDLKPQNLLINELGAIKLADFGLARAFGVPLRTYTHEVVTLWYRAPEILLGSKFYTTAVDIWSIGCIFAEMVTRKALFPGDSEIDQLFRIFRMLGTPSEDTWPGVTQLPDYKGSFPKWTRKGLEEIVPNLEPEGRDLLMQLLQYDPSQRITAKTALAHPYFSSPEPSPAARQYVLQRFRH

[9] = target: Ribosomal protein S6 kinase beta-1 (Homo sapiens) (UniProt P23443); experiment: Inhibition of human RPS6KB1 at 18.6 nM by HotSpot assay relative to control
Sequence of Ribosomal protein S6 kinase beta-1 (Homo sapiens) (P23443 whole entry, looked up): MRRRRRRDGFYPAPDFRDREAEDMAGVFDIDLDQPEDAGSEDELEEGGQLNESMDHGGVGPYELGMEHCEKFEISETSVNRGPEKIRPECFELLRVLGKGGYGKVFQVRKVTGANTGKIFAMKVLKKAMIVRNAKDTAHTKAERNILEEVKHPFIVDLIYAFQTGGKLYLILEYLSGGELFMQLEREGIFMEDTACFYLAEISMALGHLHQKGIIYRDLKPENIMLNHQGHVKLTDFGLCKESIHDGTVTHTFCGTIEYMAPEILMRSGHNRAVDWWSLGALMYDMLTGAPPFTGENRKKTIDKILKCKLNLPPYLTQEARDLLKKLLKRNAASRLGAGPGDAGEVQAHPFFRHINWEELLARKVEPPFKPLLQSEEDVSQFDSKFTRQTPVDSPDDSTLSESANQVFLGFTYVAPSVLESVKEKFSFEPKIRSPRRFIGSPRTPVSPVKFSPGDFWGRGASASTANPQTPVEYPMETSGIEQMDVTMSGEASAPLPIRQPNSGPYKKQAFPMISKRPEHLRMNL

C[C@@]1(C(=O)Nc2ccc(F)nc2)CCCN1c1nc(Nc2cc(C3CC3)n[nH]2)c2cccn2n1
inhibition [1]: -0.42% | inhibition [2]: 5.24% | inhibition [3]: -2.25% | inhibition [4]: 5.33% | inhibition [5]: -0.77%

C[C@]1(O)C[C@@H](c2nc(-c3ccc4ccc(-c5ccccc5)nc4c3)c3c(N)nccn32)C1
inhibition [6]: 3.3% | inhibition [7]: -2.96% | inhibition [8]: 0.86% | inhibition [9]: -4.9%
